Values quoted from earlier work, collected in patent US20130315934A1, “Methods and Compositions for Assessing and Treating Cancer” (Yale University, priority 2010, published 2013).

Columns and labels:
PAK-4 = PAK-4 (Homo sapiens, UniProt O96013); details: PAK family members
[1] = tested on: YUHEF melanoma cells harboring ACK1-S212L; details: cell culture
[2] = tested on: YULOVY melanoma cells possessing the S522I variant; details: cell culture, YULOVY melanoma cells (ACK1 S522I variant)
purified ACK1 = purified ACK1 (Homo sapiens, UniProt Q07912); details: in vitro, purified enzyme
Chain of purified ACK1 (Q07912 whole entry): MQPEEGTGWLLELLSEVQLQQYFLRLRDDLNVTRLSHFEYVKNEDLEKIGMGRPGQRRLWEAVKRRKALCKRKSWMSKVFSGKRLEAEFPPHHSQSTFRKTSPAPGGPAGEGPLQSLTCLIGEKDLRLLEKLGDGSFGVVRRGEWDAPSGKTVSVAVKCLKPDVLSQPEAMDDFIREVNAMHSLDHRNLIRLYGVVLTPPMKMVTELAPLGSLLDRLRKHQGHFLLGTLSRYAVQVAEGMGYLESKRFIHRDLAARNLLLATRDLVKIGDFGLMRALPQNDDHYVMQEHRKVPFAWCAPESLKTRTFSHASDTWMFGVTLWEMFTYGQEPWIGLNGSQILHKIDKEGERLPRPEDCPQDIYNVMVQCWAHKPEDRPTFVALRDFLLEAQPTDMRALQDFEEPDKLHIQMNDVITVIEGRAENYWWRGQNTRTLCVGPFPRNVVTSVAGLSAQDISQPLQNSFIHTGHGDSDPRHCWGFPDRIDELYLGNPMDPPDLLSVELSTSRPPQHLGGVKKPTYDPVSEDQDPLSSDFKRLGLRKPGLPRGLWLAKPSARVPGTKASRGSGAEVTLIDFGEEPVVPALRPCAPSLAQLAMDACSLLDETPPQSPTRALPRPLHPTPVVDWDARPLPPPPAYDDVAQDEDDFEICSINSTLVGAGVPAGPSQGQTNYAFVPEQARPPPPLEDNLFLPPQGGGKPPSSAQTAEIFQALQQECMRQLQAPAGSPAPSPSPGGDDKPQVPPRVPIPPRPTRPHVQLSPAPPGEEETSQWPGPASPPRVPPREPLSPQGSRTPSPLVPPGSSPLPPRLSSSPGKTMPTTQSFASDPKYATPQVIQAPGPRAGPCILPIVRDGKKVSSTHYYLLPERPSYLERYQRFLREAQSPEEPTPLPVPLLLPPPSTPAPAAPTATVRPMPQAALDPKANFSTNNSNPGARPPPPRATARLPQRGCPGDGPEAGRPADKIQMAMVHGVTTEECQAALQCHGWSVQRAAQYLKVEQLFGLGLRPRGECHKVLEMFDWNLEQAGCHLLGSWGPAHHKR

Chain of PAK-4 (O96013 whole entry): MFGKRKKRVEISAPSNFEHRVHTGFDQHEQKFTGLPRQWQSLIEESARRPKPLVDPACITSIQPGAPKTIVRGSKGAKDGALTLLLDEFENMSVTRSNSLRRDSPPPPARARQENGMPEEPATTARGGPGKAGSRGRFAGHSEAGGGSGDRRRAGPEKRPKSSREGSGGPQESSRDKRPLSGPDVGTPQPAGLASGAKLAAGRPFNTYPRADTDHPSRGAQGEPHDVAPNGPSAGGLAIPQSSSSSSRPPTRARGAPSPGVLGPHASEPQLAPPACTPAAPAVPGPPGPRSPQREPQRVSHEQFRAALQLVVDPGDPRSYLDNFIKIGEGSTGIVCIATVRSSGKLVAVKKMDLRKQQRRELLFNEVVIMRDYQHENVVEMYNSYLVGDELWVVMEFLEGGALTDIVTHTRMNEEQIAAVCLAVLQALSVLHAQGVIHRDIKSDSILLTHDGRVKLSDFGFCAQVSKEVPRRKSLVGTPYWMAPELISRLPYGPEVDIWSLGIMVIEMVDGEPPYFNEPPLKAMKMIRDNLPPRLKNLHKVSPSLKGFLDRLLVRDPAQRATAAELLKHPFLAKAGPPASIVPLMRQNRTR

Compound	PAK family selectivity of inhibition (PAK-4)	inhibition of proliferation [1]	inhibition of proliferation [2]	inhibition of purified ACK1 (purified ACK1)
Cc1nc(Nc2[nH]nc3c2CN(C(=O)N[C@H](CN(C)C)c2ccccc2)C3(C)C)c2sccc2n1 [PF-3758309]	inhibit only PAK-4	–	–	–
CCCS(=O)(=O)Nc1ccc(F)c(C(=O)c2c[nH]c3ncc(-c4ccc(Cl)cc4)cc23)c1F [PLX4032]	–	did not inhibit the proliferation	did not inhibit the proliferation	highly effective in vitro inhibitor
